Calls of active or inactive are those of the source.

A word on the EC50: it is the concentration needed to bring the measured effect to its halfway point. The AC50 is the concentration at which the activity in the assay is half-maximal.

Test [1] can be described thus: cytotoxicity toward NIH3T3 fibroblasts, dose response, counter-screen, cell-based, ATP luminescence, mouse fibroblasts (AID 2010).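 Further: cells exposed to compound for about 90 hours before reading.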 The class given is functional. A general note: A counterscreen serves to expose hits that act by an unwanted route or on another target.
Test [2] can be described thus: inhibitors of intracellular T. cruzi replication, confirmation, NIH3T3 host cells, beta-gal luminescence (AID 2044).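 Further: intracellular parasites grown in NIH/3T3 mouse fibroblasts as host cells; luminescent beta-galactosidase reporter signal from transgenic T. cruzi replicating inside host cells; inhibitors lower the luminescence signal.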 The class given is functional, cell-based.
Test [3] concerns the target T1, DNA repair protein RAD52 homolog (Homo sapiens, UniProt P43351).
T1 sequence (P43351 whole entry): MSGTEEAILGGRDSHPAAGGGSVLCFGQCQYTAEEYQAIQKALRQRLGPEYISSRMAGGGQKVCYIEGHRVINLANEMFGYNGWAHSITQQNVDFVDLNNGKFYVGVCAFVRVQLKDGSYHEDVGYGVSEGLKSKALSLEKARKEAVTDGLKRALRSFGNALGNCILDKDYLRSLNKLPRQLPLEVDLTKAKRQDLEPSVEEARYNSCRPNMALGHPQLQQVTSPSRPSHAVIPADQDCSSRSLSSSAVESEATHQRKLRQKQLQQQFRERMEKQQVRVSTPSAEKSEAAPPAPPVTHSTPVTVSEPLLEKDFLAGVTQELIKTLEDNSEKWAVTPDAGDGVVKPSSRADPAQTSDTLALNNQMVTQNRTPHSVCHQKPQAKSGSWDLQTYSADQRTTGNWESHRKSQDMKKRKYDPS
The class given is functional, biochemical.

In test [4] the target is T2, Ubiquitin-conjugating enzyme E2 N (Homo sapiens, UniProt P61088).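 Further: Dose-response confirmation in a TR-FRET assay detecting UBC13-driven polyubiquitin chain formation, inhibition measured.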
T2 sequence (P61088 whole entry): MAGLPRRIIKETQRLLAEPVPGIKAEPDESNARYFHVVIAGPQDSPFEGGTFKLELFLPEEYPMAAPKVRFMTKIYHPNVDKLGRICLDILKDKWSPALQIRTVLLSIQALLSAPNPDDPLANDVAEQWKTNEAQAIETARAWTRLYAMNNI
The class given is functional.

Test [5] has as its target T3, Polyadenylate-binding protein 1 (Homo sapiens, UniProt P11940). The test can be described thus: PABP1 MLLE–PAM2 interaction inhibitors, dose response, miRNA deadenylation inhibitor project, biochemical, fluorescence polarization, Cy5-PAM2 peptide, secondary (AID 602260). The class given is functional. The settings on record: read-out: IC50_Mean. Background: Fluorescence polarisation rises when a labelled molecule tumbles more slowly, as on binding a larger partner.

Test [6] addresses T3, Polyadenylate-binding protein 1. Description: PABP1 MLLE–PAM2 binding inhibitor potency, dose response, biochemical, fluorescence polarization, FITC-PAM2 peptide (AID 602259). Particulars: read-out: IC50_Mean. In kind it is functional.
Test [7] concerns the target T4, High affinity choline transporter 1 (Homo sapiens, UniProt Q9GZV3).
T4 sequence (Q9GZV3 whole entry): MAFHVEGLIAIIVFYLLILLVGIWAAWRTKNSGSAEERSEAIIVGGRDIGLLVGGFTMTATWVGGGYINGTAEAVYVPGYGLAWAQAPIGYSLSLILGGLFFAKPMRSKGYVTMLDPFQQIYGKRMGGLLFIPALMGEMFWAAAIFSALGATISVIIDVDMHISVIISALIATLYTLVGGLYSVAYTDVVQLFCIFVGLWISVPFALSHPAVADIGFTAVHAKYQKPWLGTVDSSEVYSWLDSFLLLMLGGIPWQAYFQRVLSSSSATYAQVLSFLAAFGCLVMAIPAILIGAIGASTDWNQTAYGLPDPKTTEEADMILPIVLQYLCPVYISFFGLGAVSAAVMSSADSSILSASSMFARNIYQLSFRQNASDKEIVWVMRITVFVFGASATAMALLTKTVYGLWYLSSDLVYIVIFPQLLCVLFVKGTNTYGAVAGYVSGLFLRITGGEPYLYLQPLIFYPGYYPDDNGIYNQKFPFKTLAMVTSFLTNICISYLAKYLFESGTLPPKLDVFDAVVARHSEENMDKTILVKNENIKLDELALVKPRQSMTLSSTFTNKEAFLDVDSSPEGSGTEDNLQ
Description: CHT inhibitors, dose response, cell-based, 5-point CRC, membrane potential dye (AID 504840). The class given is functional.

The nature of test [8]: NIH-3T3 fibroblast cytotoxicity, dose response, cytotoxicity control, cell-based, fluorescence, Alamar Blue, secondary assay (AID 2327).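 Further: NIH-3T3 mouse fibroblasts cultured with fluconazole at 8 µg/mL.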 The class given is functional.
Test [9] is described as follows: C. albicans growth with fluconazole, confirmation, fluorescence, retest (AID 2467). The class given is functional, cell-based.
In test [10] the target is T5, Short transient receptor potential channel 4 (Mus musculus, UniProt Q9QUQ5).
T5 sequence (Q9QUQ5 whole entry): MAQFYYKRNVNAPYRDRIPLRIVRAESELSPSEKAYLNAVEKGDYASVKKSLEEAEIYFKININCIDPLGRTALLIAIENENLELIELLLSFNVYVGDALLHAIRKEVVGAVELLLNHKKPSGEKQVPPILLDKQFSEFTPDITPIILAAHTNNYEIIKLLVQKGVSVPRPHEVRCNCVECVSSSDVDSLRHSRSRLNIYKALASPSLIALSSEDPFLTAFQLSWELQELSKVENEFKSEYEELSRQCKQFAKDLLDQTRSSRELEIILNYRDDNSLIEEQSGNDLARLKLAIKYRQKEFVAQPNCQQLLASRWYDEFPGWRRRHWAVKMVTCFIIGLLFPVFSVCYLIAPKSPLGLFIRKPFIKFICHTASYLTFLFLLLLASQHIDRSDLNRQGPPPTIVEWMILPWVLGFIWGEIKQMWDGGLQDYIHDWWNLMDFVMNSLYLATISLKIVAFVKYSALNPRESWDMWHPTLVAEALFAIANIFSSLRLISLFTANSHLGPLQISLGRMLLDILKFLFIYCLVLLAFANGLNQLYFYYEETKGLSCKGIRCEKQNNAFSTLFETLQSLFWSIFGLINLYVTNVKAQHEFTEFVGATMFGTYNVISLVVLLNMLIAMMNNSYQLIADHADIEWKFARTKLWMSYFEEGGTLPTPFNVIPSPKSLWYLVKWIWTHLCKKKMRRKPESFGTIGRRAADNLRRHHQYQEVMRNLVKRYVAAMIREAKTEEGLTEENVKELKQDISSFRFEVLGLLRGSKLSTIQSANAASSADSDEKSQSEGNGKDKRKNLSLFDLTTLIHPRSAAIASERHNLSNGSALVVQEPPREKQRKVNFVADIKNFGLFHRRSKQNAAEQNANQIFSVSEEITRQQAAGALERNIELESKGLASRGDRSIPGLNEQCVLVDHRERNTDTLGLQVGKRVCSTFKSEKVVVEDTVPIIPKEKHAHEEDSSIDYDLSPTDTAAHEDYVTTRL
The test can be described thus: mouse TRPC4 channel activators, dose response, cell-based, HEK293 TRPC4/mu-opioid, Fluo-4 calcium (AID 434937). The class given is functional.

Test [11] has as its system Streptococcus sp. 'group A'. The test can be described thus: growth inhibition of control SK(-) GAS strain, dose response, counter-screen for streptokinase expression inhibitor project, luminescence, kanamycin, BacTiterGlo, confirmation (AID 1900). The class given is functional, organism-based.
The subject of a further test is Streptococcus. The test can be described thus: Group A Streptococcus viability loss, dose response, counter-screen for streptokinase expression inhibitor project, luminescence, BacTiterGlo (AID 1915).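 Further: potency for reduction of bacterial viability or growth.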 The class given is functional, organism-based.
The target in a further test is T6, Aminopeptidase N (Plasmodium falciparum FcB1/Columbia, UniProt O96935).
T6 sequence (O96935 whole entry): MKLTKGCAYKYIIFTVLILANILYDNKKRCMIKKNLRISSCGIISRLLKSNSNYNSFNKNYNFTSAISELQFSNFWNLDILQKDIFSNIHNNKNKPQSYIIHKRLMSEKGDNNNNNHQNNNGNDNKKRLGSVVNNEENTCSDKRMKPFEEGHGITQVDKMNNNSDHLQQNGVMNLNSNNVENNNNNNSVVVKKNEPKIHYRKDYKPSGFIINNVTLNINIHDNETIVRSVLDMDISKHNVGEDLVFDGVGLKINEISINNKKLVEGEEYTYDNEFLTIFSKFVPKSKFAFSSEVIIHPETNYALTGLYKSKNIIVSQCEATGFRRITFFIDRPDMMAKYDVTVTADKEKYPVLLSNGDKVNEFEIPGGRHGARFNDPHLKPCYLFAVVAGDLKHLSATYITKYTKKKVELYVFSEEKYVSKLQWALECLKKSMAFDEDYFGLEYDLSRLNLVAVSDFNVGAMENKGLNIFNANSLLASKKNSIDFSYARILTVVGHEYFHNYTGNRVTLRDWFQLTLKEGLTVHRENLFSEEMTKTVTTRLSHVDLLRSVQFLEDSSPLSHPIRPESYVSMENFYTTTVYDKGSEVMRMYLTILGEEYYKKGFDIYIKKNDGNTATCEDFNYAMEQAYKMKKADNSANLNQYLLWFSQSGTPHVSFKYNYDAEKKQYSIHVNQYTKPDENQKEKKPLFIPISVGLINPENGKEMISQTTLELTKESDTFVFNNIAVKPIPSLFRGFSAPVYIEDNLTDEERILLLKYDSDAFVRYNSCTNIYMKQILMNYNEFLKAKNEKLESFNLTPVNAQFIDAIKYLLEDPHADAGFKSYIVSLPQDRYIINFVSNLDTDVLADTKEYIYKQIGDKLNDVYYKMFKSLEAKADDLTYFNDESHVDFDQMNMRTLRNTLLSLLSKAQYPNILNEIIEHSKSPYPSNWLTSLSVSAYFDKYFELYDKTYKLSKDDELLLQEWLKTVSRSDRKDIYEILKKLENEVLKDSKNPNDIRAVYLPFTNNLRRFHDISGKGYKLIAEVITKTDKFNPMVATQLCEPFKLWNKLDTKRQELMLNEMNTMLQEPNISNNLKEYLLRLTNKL
Description: P. falciparum M1AAP inhibitors, biochemical, fluorogenic H-Leu-NHMec substrate, 1536-well (AID 1445). Further details: species or system Plasmodium falciparum 3D7, 3D7.

For the next test, the target named is Paired box protein Pax-8 (Homo sapiens, UniProt Q06710). Description: inhibitors of PAX8-driven TPO luciferase reporter, dose response, RMG-I cells, cherry-pick (AID 687027).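 Further: luciferase reporter driven by Pax8 target thyroperoxidase promoter measured by SteadyGlo luminescence.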 In kind it is functional, cell-based. In general terms: A reporter such as luciferase makes a cellular process visible.
Test [12] is described as follows: Fluorescence-based cell-based high throughput dose response assay for inhibitors of the interaction of nucleotide-binding oligomerization domain containing 2 (NOD2) and the receptor-interacting serine-threonine kinase 2 (RIPK2). In kind it is functional. Particulars: Homo sapiens.
A short description of test [13]: inhibitors of clade B AD8 Env fusion, dose response, cell-based, cherry-pick (AID 652062).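 Further: luciferase signal from cell-cell fusion driven by HIV-1 clade B AD8 Env; potency is for inhibitors of fusion seen as a drop in luminescence.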 The class given is functional.
The nature of test [14]: ZM109 Env clade C HIV-1 fusion inhibitors, dose response, HeLa effector, CEM target cells, luciferase, cherry-pick (AID 652058). The class given is functional, cell-based.

T3 sequence (P11940 whole entry): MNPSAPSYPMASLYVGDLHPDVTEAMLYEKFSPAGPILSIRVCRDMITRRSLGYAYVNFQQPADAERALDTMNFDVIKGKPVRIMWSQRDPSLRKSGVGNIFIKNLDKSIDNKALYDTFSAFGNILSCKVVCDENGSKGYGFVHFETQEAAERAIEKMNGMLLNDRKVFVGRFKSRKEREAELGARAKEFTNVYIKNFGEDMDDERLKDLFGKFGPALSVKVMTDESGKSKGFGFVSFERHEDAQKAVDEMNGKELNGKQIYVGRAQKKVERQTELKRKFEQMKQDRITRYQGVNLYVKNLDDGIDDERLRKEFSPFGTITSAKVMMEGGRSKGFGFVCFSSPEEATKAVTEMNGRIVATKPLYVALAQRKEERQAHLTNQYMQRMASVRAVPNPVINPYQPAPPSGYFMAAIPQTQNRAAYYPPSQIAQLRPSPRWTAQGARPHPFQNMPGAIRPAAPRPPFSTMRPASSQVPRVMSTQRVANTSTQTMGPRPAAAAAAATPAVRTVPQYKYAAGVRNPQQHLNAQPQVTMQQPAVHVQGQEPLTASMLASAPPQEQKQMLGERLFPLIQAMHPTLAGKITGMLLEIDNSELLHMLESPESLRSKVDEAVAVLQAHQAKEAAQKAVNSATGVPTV
Chain of Paired box protein Pax-8 (Q06710 whole entry, the tested form may be a part): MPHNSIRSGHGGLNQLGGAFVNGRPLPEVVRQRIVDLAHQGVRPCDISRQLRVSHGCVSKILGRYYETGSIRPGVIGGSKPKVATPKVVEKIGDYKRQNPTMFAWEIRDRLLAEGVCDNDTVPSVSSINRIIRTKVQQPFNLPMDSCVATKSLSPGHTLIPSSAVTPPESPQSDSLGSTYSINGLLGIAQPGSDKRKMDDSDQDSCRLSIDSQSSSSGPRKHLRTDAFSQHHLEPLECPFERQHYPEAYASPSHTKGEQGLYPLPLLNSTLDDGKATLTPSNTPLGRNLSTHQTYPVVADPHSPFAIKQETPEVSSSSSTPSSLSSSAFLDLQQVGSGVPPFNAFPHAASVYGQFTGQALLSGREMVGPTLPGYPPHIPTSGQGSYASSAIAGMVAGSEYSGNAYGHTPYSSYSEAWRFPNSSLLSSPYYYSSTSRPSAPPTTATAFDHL

With `COc1cccc(OCC(O)CN2CCN(CCN3C(=O)c4cccc5cccc(c45)C3=O)CC2)c1` (centres undefined), the concentration giving a half-maximal response (EC50) was > 60 µM (inconclusive) in test [1] and 1.59 µM (active) in test [2]. Further, the AC50 in [3] is 18.2 µM (active). Moreover, the IC50 in test [4] was > 20 µM (inactive).

With `Cc1ccc(CN(C)C(=O)COC(=O)CSc2ccc([N+](=O)[O-])cc2)cc1`, the IC50 in test [5] and in test [6] was > 66 µM (inactive) throughout.

As for `O=C(NCCCN1CCOCC1)c1ccc(Cl)c(S(=O)(=O)N2CCCCCC2)c1`, the IC50 in test [7] is 12.3 µM (active).

In the case of `O=C1NC(=O)/C(=C/c2cccc3ccccc23)S1`, the IC50 in test [7] was 11 µM (active). Moreover, the EC50 is > 160 µM (inactive) in test [8] and 0.76 µM (active) in [9].

Consider `Cc1onc(-c2ccccc2)c1C(=O)NC(=S)NNC(=O)c1ccco1`, for which the IC50 in test [7] was 15.8 µM (active). For the same compound, the EC50 in test [10] is 10.6 µM (active); in test [11], 2.79 µM (active); in the test with Streptococcus, 10.6 µM (active).

Consider `Cc1nn2c(N3CCN(C)CC3)c3c(nc2c1-c1ccccc1)CCCC3`, for which the figures for the IC50 (on Aminopeptidase N; in test [7]) were 61.7 µM (active) and 10.1 µM (active), respectively.

In the case of `Cn1c(=O)[nH]c2nnc(-c3ccc(Cl)c(Cl)c3)nc2c1=O`, the IC50 in test [7] was 11.2 µM (active).

As for `C#CC[N+]1(CC#Cc2cccc(C)c2)CCCCC1`, the IC50 in test [7] was 12 µM (active).

Regarding `CCOC(=O)c1c(C)n(-c2ccc(C)cc2)c2ccc(OCC(O)CNCCCO)cc12` (centres undefined), the AC50 in test [3] was 6.8 µM (active). Also, in test [4], the IC50 is > 20 µM (inactive).

In the case of `O=C(CSc1ccc2c(c1)OCCO2)NCCc1ccc(Cl)cc1Cl`, the IC50 in test [5] and in test [6] was > 66 µM (inactive) each time.

With `C=CC(=O)N1C/C(=C/c2ccc(Cl)cc2)C(=O)/C(=C\c2ccc(Cl)cc2)C1`, on Paired box protein Pax-8, the half-maximal activity concentration (AC50) is 1.82 µM (active). In addition, the IC50 in test [12] is 2.58 µM (active).

For the compound `CC(=O)NCC/N=C(\C)c1sc2ccccc2c1O`, the IC50 in [5] and in [6] was > 66 µM (inactive) each time.

`CC(=O)C1=C(C)NC(=S)NC1c1ccccc1` (centres undefined): the half-maximal activity concentration (AC50) in [13] was 45 µM (active); in test [14] it was 27 µM (active).

For `CNC12CCc3cc(OC)c(OC)c(c31)-c1cc3c(cc1C2)OCO3` (centres undefined), the AC50 in test [3] is 9.25 µM (active).
